Measured values as given in PMC12040169 (PLOS Biology, 2025).

Assay: in vitro
Conditions: human, hela cells, % viability

SMILES	viability at 28.5 h, 10 µM [%]
CCCCSc1nnc2c(n1)OC(/C=C/c1ccc([N+](=O)[O-])o1)Nc1ccccc1-2 (centres unmarked) [CBK262565]	101
O=C(O)c1ccccc1-c1ccc(/C=C2\S/C(=N\c3ccccc3)N(c3ccccc3)C2=O)o1 [CBK262566]	101
O=C(Nc1cc(Oc2ccc(F)cc2)cc(Oc2cccnc2)c1)c1nn2c(C(F)(F)F)cc(-c3cccs3)nc2c1Cl [CBK262568]	93.1
OC(Cn1c(Cc2ccccc2)nc2ccccc21)Cn1c2ccccc2c2ccccc21 (centres unmarked) [CBK262570]	95.2
CN1CCN(c2nc3c(N)ncn(CC(O)CO)c-3n2)CC1 (centres unmarked) [CBK262571]	108
Cc1ccccc1NC(=O)c1c(NC(=O)Cc2ccccc2)sc2c1CCCC2 [CBK262572]	108
NNC(=O)/C(=C\c1cccc([N+](=O)[O-])c1)NC(=O)c1ccc(Br)o1 [CBK262573]	107
Nc1nonc1C(=O)NCCNc1ccc([N+](=O)[O-])cc1 [CBK262577]	104
O=C(O)CCn1c2ccccc2c2cc(I)ccc21 [CBK262578]	97.5
COc1cc([N+](=O)[O-])ccc1-c1ccc(/C=c2\sc3nc4cc(Br)cnc4n3c2=O)o1 [CBK262579]	103
O=C(NCC1c2ccccc2CCN1C(=O)CN1C(=O)c2ccccc2C1=O)C1CCCCC1 (centres unmarked) [CBK262582]	90.6
CCOC(=O)c1c(NC(=O)Cn2cnc([N+](=O)[O-])n2)sc2c1CCCC2 [CBK262583]	88.4
O=C(Nc1cc(Oc2cncc(Cl)c2)cc([N+](=O)[O-])c1)c1nn2c(C(F)(F)F)cc(-c3cccs3)nc2c1Cl [CBK262585]	94.9
CN1CCc2c(sc3nc(SCC(=O)c4ccccc4)n(-c4ccccc4)c(=O)c23)C1 [CBK262586]	85.8
CSc1nc(N/N=C/c2ccc(Cl)cc2)c2c3c(sc2n1)CN(C)CC3 [CBK262588]	107
O=c1c2c(nc(NCCO)n1-c1ccccc1)-c1ccccc1CC21CCCCC1 [CBK262589]	96.4
O=C(Cc1ccc(-c2ccccc2)cc1)NCc1cccnc1 [CBK262591]	86.4
COc1cccc(OCC(=O)O/N=C(\N)c2ccncc2)c1 [CBK262592]	91.6
c1ccc2[nH]c(SCCN3CCOCC3)nc2c1 [CBK262593]	89
CCN1CCCC1CNC(=O)c1cc([N+](=O)[O-])c(N(C)C)cc1OC (centres unmarked) [CBK262595]	95.8
CN1C2C=C(N(CCc3ccccc3)C(=O)c3ccc(-c4ccccc4)cc3)CC1CC2 (centres unmarked) [CBK262596C]	104

SMILES	viability at 28.5 h, 10 µM [%]
CN1C2C=C(N(CCc3ccccc3)C(=O)c3ccc(Cl)cc3)CC1CC2 (centres unmarked) [CBK262604C]	94.7
O=C(Nc1ccc(C(=O)Nc2cccc(-c3nc4ccccc4o3)c2)cc1)c1ccc([N+](=O)[O-])cc1 [CBK262606]	96.6
COc1cc(C(=O)N/C(=C\c2ccc(O)cc2)C(=O)O)cc(OC)c1OC [CBK262607]	86.2
COc1ccc(OCC(=O)Nc2cc3oc4ccccc4c3cc2OC)cc1 [CBK262608]	88.5
O=C(O)CCC(=O)Nc1ccc(Br)cc1C(=O)c1ccccc1 [CBK262610]	114
Cc1ccc(NC(=O)CCC(=O)O)c(C(=O)c2ccccc2)c1 [CBK262611]	108
Cc1cc(C)cc(C(=O)N(CCc2ccccc2)C2CC3CCC(C2)N3C)c1 (centres unmarked) [CBK262612C]	83.7
O=C1c2cc(-c3nc(-c4ccccc4)[nH]c3-c3ccccc3)ccc2-c2ccc([N+](=O)[O-])cc21 [CBK262613]	85
CC(C)N1CCC(=NNC(=O)COc2ccc(Cl)cc2Cl)CC1 [CBK262614]	83.2
Clc1ccc(-c2nc(-c3ccncc3)no2)c(Cl)c1 [CBK262615]	83.6
COc1ccc(C(=O)NNC(=O)c2cc(OC)cc(OC)c2)cc1 [CBK262616]	96
CC(=O)Nc1ccc(-c2nc(-c3ccc(-c4ccccc4)cc3)c(-c3ccc(-c4ccccc4)cc3)[nH]2)cc1 [CBK262620]	87.3
CCN1CCCC1CNC(=O)c1cccc(Cl)c1 (centres unmarked) [CBK262621]	84.3
COC(=O)c1sc(NC(=O)C2CCCO2)c(C(=O)OC)c1C (centres unmarked) [CBK262622]	88
O=C(NNC(=O)C(O)c1ccccc1)NC1CCCCC1 (centres unmarked) [CBK262625]	106
CCOC(=O)c1c(NC(=O)c2cc(-c3ccc(C)c(C)c3)nc3ccccc23)sc2c1CCC(C)C2 (centres unmarked) [CBK262627]	96.4
Cc1cccc(-c2cc(C(=O)Nc3sc4c(c3C#N)CCCCCC4)c3ccccc3n2)c1 [CBK262632]	103
Cc1c(-c2ccc(Cl)cc2Cl)nc2ccccc2c1C(=O)NCCC(c1ccccc1)c1ccccc1 [CBK262634]	99.7
Cc1ccc(-c2cc(C(=O)Nc3ccc(S(=O)(=O)Nc4nccs4)cc3)c3ccccc3n2)c(C)c1 [CBK262638]	85.3
NC(=O)c1ccc(NC(=O)c2sc3ccccc3c2Cl)cc1 [CBK262643]	90.8
O=C(NCCCn1ccnc1)c1cc(-c2ccc(Br)cc2)nc2ccccc12 [CBK262645]	84.8

SMILES	viability at 28.5 h, 10 µM [%]
CCC1CCc2c(sc(NC(=O)c3cc(-c4ccc(Cl)s4)nc4ccccc34)c2C(N)=O)C1 (centres unmarked) [CBK262646]	88.9
CCCOC(=O)c1c(NC(=O)c2cc(-c3ccccc3)nc3ccccc23)sc2c1CCC(C)C2 (centres unmarked) [CBK262647]	93.9
O=C(NCCN1CCOCC1)c1cc(-c2ccc(Cl)cc2)nc2ccccc12 [CBK262650]	96.6
COc1ccc(CC(=O)NNC(=O)Nc2ccc(Cl)c(Cl)c2)cc1 [CBK262652]	92.6
COC(=O)c1c(NC(=O)C2C3C=CC(C3)C2C(=O)O)sc2c1CCCCC2 (centres unmarked) [CBK262653]	80.2
COC(=O)c1c(NC(=O)c2cnccn2)sc2c1CCC(C)C2 (centres unmarked) [CBK262654]	96.2
COC(=O)c1c(NC(=O)C2CC=CCC2C(=O)O)sc2c1CCC(C)C2 (centres unmarked) [CBK262655]	101
O=C(NCCCn1ccnc1)c1cc(-c2ccccc2Cl)nc2ccccc12 [CBK262656]	95.2
CCOC(=O)c1sc(NC(=O)Nc2cccc(Cl)c2)c(C(N)=O)c1C [CBK262658]	107
O=C(O)C1C2C=CC(C2)C1C(=O)N1CCN(C(c2ccccc2)c2ccccc2)CC1 (centres unmarked) [CBK262659]	95.2
CN1CCC(=NNC(=O)c2cc(O)c(O)c(O)c2)CC1 [CBK262660]	78.6
CC(=O)NC(N(C)S(=O)(=O)c1ccc(C)cc1)C(Cl)(Cl)Cl (centres unmarked) [CBK262662]	93.8
CC12CN3CC(C)(CN(C1)C3c1cc(Br)ccc1O)C2O (centres unmarked) [CBK262664]	112
CC12CN3CC(C)(CN(C1)C3c1ccc([N+](=O)[O-])cc1)C2 (centres unmarked) [CBK262665]	95.2
CC(=O)Nc1ccc(-c2nc3c4ccccc4c4ccc(I)cc4c3[nH]2)cc1 [CBK262667]	100
NNC(=O)c1cc(O)n[nH]1 [CBK262669]	106
O=C(Nc1cccc(Br)c1)C1CN(S(=O)(=O)c2ccccc2)CCN1S(=O)(=O)c1ccccc1 (centres unmarked) [CBK262671]	79.7
O=C(Nc1ccc(I)cc1)c1ccc(CN2CCc3ccccc3C2)cc1 [CBK262672]	101
COc1ccccc1NC(=O)C1CN(S(=O)(=O)c2ccccc2)CCN1S(=O)(=O)c1ccccc1 (centres unmarked) [CBK262673]	93.5
COc1cc(/C=C2\SC(=N)NC2=O)ccc1OCC(=O)O [CBK262675]	88.4
COc1ccc(C2=NN(c3ccccc3)C(c3ccc(OC)c(OC)c3C(=O)O)C2)cc1 (centres unmarked) [CBK262679]	89.3

SMILES	viability at 28.5 h, 10 µM [%]
O=C(O)CN(c1cccc([N+](=O)[O-])c1)S(=O)(=O)c1ccccc1 [CBK262684]	85.6
O=C(C1CN(S(=O)(=O)c2ccccc2)CCN1S(=O)(=O)c1ccccc1)N1CCCCC1 (centres unmarked) [CBK262686]	86.4
O=C1C(=CNCc2ccco2)C(=O)c2ccccc21 [CBK262688]	115
Cc1cc2c([nH]c3ccccc32)c(C)n1 [CBK262689]	104
Cc1ccc(NC(=O)C2CN(S(=O)(=O)c3ccccc3)CCN2S(=O)(=O)c2ccccc2)c(C)c1 (centres unmarked) [CBK262693]	83.8
N#CC(C(N)=O)C(c1ccc(Br)cc1)c1c(-c2ccccc2)nn(-c2nc(-c3ccccc3)cs2)c1O (centres unmarked) [CBK262697]	107
COc1ccc(C(C)=O)cc1Cc1c(O)nc(SC)nc1O [CBK262699]	93.9
CC(C)Oc1ccccc1-c1nnc(SCC(=O)O)[nH]1 [CBK262702]	81.7
Cc1ccc(N(CC(=O)Nc2cccc3ccccc23)S(=O)(=O)c2ccc(F)cc2)cc1 [CBK262707]	94.7
COc1ccc(/C=N/NC(=O)c2ccc(CN3CCOCC3)cc2)cc1[N+](=O)[O-] [CBK262708]	93
CC(=O)c1c(C)nn2c3ccccc3n(CCN3CCOCC3)c12 [CBK262709C]	115
COc1ccc(/C=C2\S/C(=N\Cc3ccccc3)N(Cc3ccccc3)C2=O)cc1C(=O)O [CBK262715]	104
O=[N+]([O-])c1ccc2c(c1)C=C1CCCCC1(NCc1ccccc1)O2 (centres unmarked) [CBK262716]	98.8
COc1ccc(CCN2C(=O)c3ccccc3C2(O)c2ncc[nH]2)cc1OC (centres unmarked) [CBK262717]	103
COc1ccccc1NC(=O)CN(c1ccc(C)cc1)S(=O)(=O)c1ccc(F)cc1 [CBK262718]	91.2
Cc1[nH]nc(Nc2ccc(C(=O)O)cc2)c1[N+](=O)[O-] [CBK262726]	80
CN1CCC(=NNC(=O)CN(c2cccc([N+](=O)[O-])c2)S(=O)(=O)c2ccccc2)CC1 [CBK262727]	90.3
CN1CCC(=NNC(=O)c2ccc(CN(c3ccccc3)S(C)(=O)=O)cc2)CC1 [CBK262728]	97.8
COc1ccc(N(CC(=O)O)S(=O)(=O)c2ccccc2[N+](=O)[O-])c(OC)c1 [CBK262729]	92.6
O=C(CN1CCOCC1)N/N=C/c1cc2ccccc2nc1Cl [CBK262732]	101
